Structures are written as SMILES. Several values for one entry are separate records, joined by “and”; a condition that tells them apart may be missing. Identical values can stand only once.

The assay concerns 282377-053-R-J1-PDC complex spheroids, viability. The assay is described as follows: Anticancer human tumor 282377-053-R-J1-PDC patient-derived colon adenocarcinoma cell line growth inhibition [GQUAD]. The following applies: for viability, T/C: stronger effect = lower value. From the text:
DNA G-quadruplex Stabilizer Agents in Combinations in Complex Spheroids
A high-throughput screen of multi-cell type tumor spheroids was designed to identify active combinations of DNA G-quadruplex stabilizer agents and targeted small molecules. Complex spheroids include a stromal component modeled by human endothelial cells (HUVEC) and fibroblasts modeled by human mesenchymal stem cells (MSCs). The concentration ranges selected for each drug and investigational agent were based upon clinically achievable concentrations if the clinical Cmax of the agent was known.
Compounds. The drugs and investigational agents: pidnarulex (CX-5461; NSC782164), APTO-253 (NSC789042), BRACO-19 (NSC847499), peposertib (NSC802822), ceralasertib (NSC780249), elimusertib (NSC800525), camonsertib (NSC841442), AZD-1390 (NSC803789), olaparib (NSC753686), talazoparib (NSC767125), ART-558 (NSC835418), sotorasib (NSC818433), MRTX-1133 (NSC836407), SN-38 (NSC673596), topotecan (NSC609699), etoposide (NSC141540), doxorubicin (NSC123127), gemcitabine (NSC613327), 5-fluorouracil (NSC19893), paclitaxel (NSC125973), vemurafenib (NSC761431), panobinostat (NSC761190), R-306465 (JNJ-16241199; NSC773264), adavosertib (NSC754352), TP-3654 (NSC805149), carboplatin (NSC241240), KSQ-4279 (NSC840948), and staurosporine (NSC755774) were obtained from the National Cancer Institute (NCI) Developmental Therapeutics Program Chemical Repository (34). The FDA-approved anticancer drug set is available from the NCI Developmental Therapeutics Program. […] The stock solutions were prepared in dimethyl sulfoxide (DMSO, Sigma-Aldrich, St. Louis, MO, cat. D2650) at 800-fold the tested concentration and stored at -70 degrees C prior to their use. All drugs and investigational agents were tested over a range starting from a high concentration at or near the clinical Cmax and decreasing in half-log increments. If the clinical Cmax for an agent had not been determined, the highest concentration tested was 10 microM.
2.3 Cell Culture. All cells were maintained in an incubator at 37 degrees C and 5% CO2 with 95% humidity. The PDC lines were cultured according to standard operating procedures established by the NCI PDMR. All PDCs were thawed and cultured in Matrigel-coated flasks prepared with a working solution of 1X Ham's F-12 nutrient mix, without supplementation (Invitrogen, cat. 11765054), 100 U/mL penicillin-streptomycin (Invitrogen, cat. 15140122), and 2.5% Matrigel (Corning Inc., cat. 354248) for the first three passages. The 857933-349-R-J2-PDC line was cultured in 6C/Colon 1B media, which includes advanced DMEM/F-12 (Thermo Fisher Scientific, cat. 12634028), 10 mM HEPES (Thermo Fisher Scientific, cat. 15630080), 1X GlutaMAX supplement (Thermo Fisher Scientific, cat. 35050061), 0.1 mg/mL primocin (InvivoGen, cat. ant-pm-2), 10% defined fetal bovine serum, heat inactivated (HyClone Laboratories Inc., cat. SH30070.03HI), 50% L-WRN conditioned media (ATCC, cat. CRL-3276), 1.25 mM N-Acetyl-L-cysteine (Sigma-Aldrich, cat. A9165), 10 mM nicotinamide (Sigma-Aldrich, cat. N0636), 1X B-27 supplement (Thermo Fisher Scientific, cat. 17504044), 1X N-2 supplement (Thermo Fisher Scientific, cat. 17502048), 10 microM Y-27632 dihydrochloride (Tocris Bioscience, cat. 1254), and 50 ng/mL human EGF recombinant protein (Thermo Fisher Scientific, cat. PHG0311). The 485176-168-R4-J1-PDC line was cultured in Panc media, which includes all 6C/Colon 1B media components plus 100 ng/mL human FGF-10 (Thermo Fisher Scientific, cat. 100-26), 500 nM SB-431542 (Selleckchem, cat. S1067), and gastrin (Tocris, cat. 3006).
[…]

Setting [1] is: curve of first compound, second compound 0.0316 µM.
Setting [2] is: curve of first compound, second compound 0.1 µM.
The mark [3] stands for this setting: curve of first compound, second compound 0.316 µM.
The mark [4] stands for this setting: curve of first compound, second compound 1 µM.
Setting [5] is: curve of first compound, second compound 3.16 µM.
[6] abbreviates: curve of first compound, second compound 10 µM.
Setting [7] is: second compound 0.0316 µM, first compound 0.0316 µM.
Setting [8] is: second compound 0.0316 µM, first compound 0.316 µM.
Where [9] appears, read: second compound 0.1 µM, first compound 0.0316 µM.
[10] abbreviates: second compound 0.1 µM, first compound 0.316 µM.
Where [11] appears, read: second compound 0.316 µM, first compound 0.0316 µM.
Where [12] appears, read: second compound 0.316 µM, first compound 0.316 µM.
[13] abbreviates: second compound 1 µM, first compound 0.0316 µM.
Setting [14] is: second compound 1 µM, first compound 0.316 µM.
[15] abbreviates: second compound 3.16 µM, first compound 0.0316 µM.
Where [16] appears, read: second compound 3.16 µM, first compound 0.316 µM.
The mark [17] stands for this setting: second compound 10 µM, first compound 0.0316 µM.
Setting [18] is: second compound 10 µM, first compound 0.316 µM.
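Note: spheroids exposed to compounds for 7 days before readout.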
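Throughout, for viability, T/C: percent of vehicle DMSO control viability with 100% = untreated-like growth.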

Consider `Cn1ncnc1[C@H]1c2n[nH]c(=O)c3cc(F)cc(c23)N[C@@H]1c1ccc(F)cc1` + CN(C)c1ccc(Nc2c3ccc(NC(=O)CCN4CCCC4)cc3nc3cc(NC(=O)CCN4CCCC4)ccc23)cc1, for which the IC50 – broadly, the concentration that inhibits the measured activity by half – is over 316 nM under setting [1]; over 316 nM under setting [2]; over 316 nM under setting [3]; over 316 nM under setting [4]; over 316 nM under setting [5]; over 316 nM under setting [6]. In addition, the viability, T/C – broadly, the ratio of treated to control – was 96.8% (second compound 0.0316 µM, first compound 0.000999 µM); 92.6% (second compound 0.0316 µM, first compound 0.00316 µM); 101% (second compound 0.0316 µM, first compound 0.00999 µM); 104% under setting [7]; 112% (second compound 0.0316 µM, first compound 0.0999 µM); 110% under setting [8]. In addition, the viability, T/C was 127% (second compound 0.1 µM, first compound 0.000999 µM); 82.7% (second compound 0.1 µM, first compound 0.00316 µM); 88.7% (second compound 0.1 µM, first compound 0.00999 µM); 105% under setting [9]; 101% (second compound 0.1 µM, first compound 0.0999 µM); 98.8% under setting [10]. Also, the viability, T/C was 109% (second compound 0.316 µM, first compound 0.000999 µM); 77.7% (second compound 0.316 µM, first compound 0.00316 µM); 78.9% (second compound 0.316 µM, first compound 0.00999 µM); 89.3% under setting [11]; 94.3% (second compound 0.316 µM, first compound 0.0999 µM); 83.3% under setting [12]. Further, the viability, T/C is, setting by setting: (second compound 1 µM, first compound 0.000999 µM) 109%; (second compound 1 µM, first compound 0.00316 µM) 108%; (second compound 1 µM, first compound 0.00999 µM) 100%; under setting [13], 94.9%; (second compound 1 µM, first compound 0.0999 µM) 107%; under setting [14], 89.1%. The viability, T/C is, setting by setting: (second compound 3.16 µM, first compound 0.000999 µM) 85.5%; (second compound 3.16 µM, first compound 0.00316 µM) 81%; (second compound 3.16 µM, first compound 0.00999 µM) 101%; under setting [15], 90.8%; (second compound 3.16 µM, first compound 0.0999 µM) 92.8%; under setting [16], 102%. The viability, T/C runs as follows: (second compound 10 µM, first compound 0.000999 µM) 81.4%; (second compound 10 µM, first compound 0.00316 µM) 84.8%; (second compound 10 µM, first compound 0.00999 µM) 91.6%; under setting [17], 106%; (second compound 10 µM, first compound 0.0999 µM) 101%; under setting [18], 101%.

`Cc1[nH]c2ccc(F)cc2c1-c1nc2c3cccnc3c3ncccc3c2[nH]1`: for the setting “compound 0.0316 µM”, the viability, T/C is 91.7% [middle of 12 runs]. Moreover, the concentration for half-maximal inhibition (IC50) is > 10000 nM and 8360 nM and 8060 nM (compound alone, run of 04/16/2024); > 10000 nM and 9040 nM and 7370 nM (compound alone, run of 04/22/2024).

As for `C=CCn1c(=O)c2cnc(Nc3ccc(N4CCN(C)CC4)cc3)nc2n1-c1cccc(C(C)(C)O)n1`, the viability, T/C runs as follows: (compound 0.0316 µM) 88.3% and 90.1% and 98.2%; (compound 0.1 µM) 65.9% and 82.6% and 109%; (compound 0.316 µM) 65.6% and 85.4% and 103%; (compound 1 µM) 66.5% and 75% and 72.4%; (compound 3.16 µM) 72.8% and 29.1% and 28%; (compound 10 µM) 17.2% and 15.7% and 17.4%. Under “curve of compound”, the IC50 was 5010 nM and 1870 nM and 1780 nM.

Regarding `COc1ccc([C@@H](O)c2cc(-c3ncnc4cc(N5CCOCC5)ccc34)c(F)cc2Cl)nn1` + Cc1cnc(CNC(=O)c2c(=O)c3ccc(N4CCCN(C)CC4)nc3n3c2sc2ccccc23)cn1, the half-maximal inhibitory concentration (IC50) reads like this: under setting [1], over 10000 nM; under setting [2], 8310 nM; under setting [3], 3510 nM; under setting [4], 328 nM; under setting [5], 77.8 nM; under setting [6], under 31.6 nM. Besides, the viability, T/C under setting [7] is 97%; the viability, T/C (second compound 0.0316 µM, first compound 0.1 µM) was 82.7%; the viability, T/C under setting [8] is 118%; the viability, T/C (second compound 0.0316 µM, first compound 1 µM) is 78.1%; the viability, T/C (second compound 0.0316 µM, first compound 3.16 µM) is 73.6%; the viability, T/C (second compound 0.0316 µM, first compound 10 µM) was 72%. Besides, the viability, T/C under setting [9] was 117%; the viability, T/C (second compound 0.1 µM, first compound 0.1 µM) was 113%; the viability, T/C under setting [10] is 93.8%; the viability, T/C (second compound 0.1 µM, first compound 1 µM) is 77.3%; the viability, T/C (second compound 0.1 µM, first compound 3.16 µM) is 66%; the viability, T/C (second compound 0.1 µM, first compound 10 µM) is 46.4%. For the same compound, the viability, T/C under setting [11] is 79.2%; the viability, T/C (second compound 0.316 µM, first compound 0.1 µM) was 84.8%; the viability, T/C under setting [12] was 69.9%; the viability, T/C (second compound 0.316 µM, first compound 1 µM) was 66.3%; the viability, T/C (second compound 0.316 µM, first compound 3.16 µM) is 51.2%; the viability, T/C (second compound 0.316 µM, first compound 10 µM) was 36.5%. Moreover, the viability, T/C is 61.1% under setting [13]; 52% (second compound 1 µM, first compound 0.1 µM); 55.5% under setting [14]; 42% (second compound 1 µM, first compound 1 µM); 41.3% (second compound 1 µM, first compound 3.16 µM); 37.3% (second compound 1 µM, first compound 10 µM). The viability, T/C is 56.3% under setting [15]; 48.2% (second compound 3.16 µM, first compound 0.1 µM); 43.3% under setting [16]; 42.9% (second compound 3.16 µM, first compound 1 µM); 41.5% (second compound 3.16 µM, first compound 3.16 µM); 39.2% (second compound 3.16 µM, first compound 10 µM). Besides, the viability, T/C is, setting by setting: under setting [17], 47%; (second compound 10 µM, first compound 0.1 µM) 45.3%; under setting [18], 44.5%; (second compound 10 µM, first compound 1 µM) 39.9%; (second compound 10 µM, first compound 3.16 µM) 35.5%; (second compound 10 µM, first compound 10 µM) 30.8%.

With `COc1cccc2c1C(=O)c1c(O)c3c(c(O)c1C2=O)CC(O)(C(=O)CO)CC3OC1CC(N)C(O)C(C)O1` (stereo unspecified), the viability, T/C by setting is: (compound 0.0316 µM) 109% and 108% and 110%; (compound 0.1 µM) 110% and 102% and 101%; (compound 0.316 µM) 92.8% and 109% and 77.7%; (compound 1 µM) 54.2% and 77.3% and 56%; (compound 3.16 µM) 15.7% and 29.5% and 13.9%; (compound 10 µM) 1.35% and 2.21% and 0.95%. The IC50 (curve of compound) was 1130 nM and 1940 nM and 1010 nM.
